Experimental data from patent US11931459B2, “Treatment of pain in pediatric patients by administration of sustained-release liposomal anesthetic compositions” (Pacira Pharmaceuticals, Inc., priority 2021, dated 2024).
Where a name gives a salt, the structure may show the parent alone.

How the values were obtained:
[1] = Bupivacaine PK after local infiltration, noncompartmental analysis (PLAY phase 3 trial, NCT03682302); parameters: species or system human; settings: in vivo; for AUC(0-inf): AUC0-∞
Experimental: • Methods: A multicenter, open-label, phase 3, randomized trial (PLAY; NCT03682302) was conducted, with primary and secondary objectives evaluating the pharmacokinetics and safety, respectively, of multivesicular liposomal bupivacaine (EXPAREL®) in pediatric patients (age group 1: 12 to <17 years; age group 2: 6 to <12 years). The hypothesis was that the pharmacokinetics and safety profiles would support the safety of EXPAREL® (also referred to herein as “multivesicular liposomal bupivacaine” or “liposomal bupivacaine”) in pediatric patients. Age group 1 received 4 mg/kg liposomal bupivacaine or 2 mg/kg bupivacaine hydrochloride (HCl) at the end of spine surgery; all patients in age group 2 received liposomal bupivacaine (4 mg/kg) at the end of spine or cardiac surgery. […] In age group 2, 100% and 31% of patients undergoing spine (n=5) and cardiac (n=9) surgery experienced TEAEs, respectively. TEAEs were generally mild or moderate, with no discontinuations due to TEAEs or deaths. […] TEAEs were mild to moderate, supporting the safety of liposomal bupivacaine in pediatric patients undergoing spine or cardiac surgery. Study Design
This study was performed in 2 parts. Part 1 evaluated PK and safety of liposomal bupivacaine. Part 2 followed part 1 and further evaluated the safety of liposomal bupivacaine. For both parts of the study, pediatric patients aged 12 to <17 years (age group 1) were analyzed separately from patients aged 6 to <12 years (age group 2), per FDA guidance for safety studies in pediatric patients.^25
In age group 1, eligible pediatric patients aged 12 to <17 years undergoing spine surgery were randomized 1:1 to receive a single dose of either liposomal bupivacaine (4 mg/kg up to 266 mg) diluted with normal saline, or bupivacaine HCl (2 mg/kg up to 175 mg) via local infiltration at the end of surgery. Randomization was performed with a centralized randomization system using a unique subject identifier and unique random code identifier. In age group 2, all eligible pediatric patients aged 6 to <12 years of age undergoing either spine or cardiac surgery received liposomal bupivacaine (4 mg/kg up to 266 mg) via local infiltration at the end of surgery. Dosing for both age groups was weight based. Guidelines and training were shared with the participating surgeons to ensure reliability in infiltration techniques.
Across age groups and surgical procedures, surgeons administered liposomal bupivacaine or bupivacaine HCl via local infiltration prior to wound closure, with liposomal bupivacaine and bupivacaine HCl administered in small increments into the deep and superficial layers along the entire length of the incision site to ensure uniform drug distribution. Use of intraoperative opioids, acetaminophen, or other nonsteroidal anti-inflammatory drugs as well as postsurgical pain medication in cases of insufficient analgesia during and after surgery was permitted in accordance with the standard of care at each site. Use of local anesthetics within 96 hours after administration of liposomal bupivacaine was prohibited.
The primary objective was to analyze PK of liposomal bupivacaine, including area under the plasma concentration-time curve (AUC), maximum plasma concentration (Cmax), time to Cmax (Tmax), apparent elimination half-life (t1/2), apparent clearance (CL/F), and apparent volume of distribution (Vd/F). To assess plasma concentration of bupivacaine, 8 blood samples were collected up to 42-60 hours after spine surgery and up to 64-72 hours after cardiac surgery in each patient. For both procedures, the first 4 samples were collected ˜15, ˜30, ˜45, and 60-75 minutes after liposomal bupivacaine administration. The last 4 samples were collected in time windows rather than precise time points. For spine surgery, sample windows were 2-3,10-18, 24-36, and 42-60 hours after receiving liposomal bupivacaine or bupivacaine HCl. […]

[2] = Bupivacaine PK, nonlinear mixed-effect modeling (population PK method); assay type: in vivo, human
Experimental: The sample size was determined on the basis of the number of patients needed to characterize the PK profile of liposomal bupivacaine in pediatric patients per FDA requirements. Authorized staff or a designee obtained the randomization assignment once eligible patients were at the clinic site for surgery. Descriptive statistics (number, mean, standard deviation [SD], median, minimum, maximum) were calculated for continuous data; tabulations (number and percentage) were calculated for categorial data. PK analysis included pediatric patients who underwent surgery, received treatment, and provided at least 1 blood sample for quantifiable plasma concentration measurement. PK measures were assessed by noncompartmental analysis. A separate PK analysis was conducted using nonlinear mixed-effect modeling (population PK method) with the spine surgery cohorts combined. The safety analysis included pediatric patients who underwent surgery and received treatment. The incidence of patients reporting TEAEs was tabulated by the number and percentage of patients reporting the TEAE. All analyses and tabulations were performed using SAS, version 9.4; PK descriptive statistics were performed using Sigmastat and Microsoft Excel.
Across age groups, trends in PK parameters between liposomal bupivacaine and bupivacaine HCl using the population PK model were consistent with those observed with noncompartmental analysis (Table 4). The PK of bupivacaine in both age groups and surgery cohorts were adequately described by a linear 2-compartment PK model with fast and slow absorption routes for liposomal bupivacaine. For each treatment (liposomal bupivacaine or bupivacaine HCl), the Cmax in 12-year-old patients was predicted to be similar to that in 17-year-old patients in pediatric patients undergoing spine surgery.

[3] = Safety: treatment-emergent adverse events up to 30 days after surgery (PLAY trial); assay type: in vivo; settings: age group 1 (12 to <17 years), spine surgery; liposomal bupivacaine 4 mg/kg or bupivacaine HCl 2 mg/kg
Experimental: • Methods: A multicenter, open-label, phase 3, randomized trial (PLAY; NCT03682302) was conducted, with primary and secondary objectives evaluating the pharmacokinetics and safety, respectively, of multivesicular liposomal bupivacaine (EXPAREL®) in pediatric patients (age group 1: 12 to <17 years; age group 2: 6 to <12 years). The hypothesis was that the pharmacokinetics and safety profiles would support the safety of EXPAREL® (also referred to herein as “multivesicular liposomal bupivacaine” or “liposomal bupivacaine”) in pediatric patients. Age group 1 received 4 mg/kg liposomal bupivacaine or 2 mg/kg bupivacaine hydrochloride (HCl) at the end of spine surgery; all patients in age group 2 received liposomal bupivacaine (4 mg/kg) at the end of spine or cardiac surgery. […]
The sample size was determined on the basis of the number of patients needed to characterize the PK profile of liposomal bupivacaine in pediatric patients per FDA requirements. […] Descriptive statistics (number, mean, standard deviation [SD], median, minimum, maximum) were calculated for continuous data; tabulations (number and percentage) were calculated for categorial data. PK analysis included pediatric patients who underwent surgery, received treatment, and provided at least 1 blood sample for quantifiable plasma concentration measurement. PK measures were assessed by noncompartmental analysis. […]

SMILES: CCCCN1CCCCC1C(=O)Nc1c(C)cccc1C (stereo not drawn) [bupivacaine HCl, bupivacaine hydrochloride]
- Tmax ([1]; human): ~1 h
- Tmax ([1]; human, 2 mg/kg): 0.9 h
- AUC(0-inf) ([1]; human, 2 mg/kg, Geometric mean): 5060 ng·h/mL
- AUC(0-inf) ([1]; human, 2 mg/kg, Mean): 5710 ng·h/mL
- Vd/F ([1]; human, 2 mg/kg, Geometric mean): 201 L
- Vd/F ([1]; human, 2 mg/kg, Mean): 227 L
- half-life ([1]; human, 2 mg/kg, t1/2, Geometric mean): 7.4 h
- half-life ([1]; human, 2 mg/kg, t1/2, Mean): 8.4 h
- Cmax ([1]; human, age group 1 (12 to <17 years), spine surgery, local infiltration, liposomal bupivacaine 4 mg/kg (n = 15) or bupivacaine HCl 2 mg/kg (n = 15), read-out: Cmax, Geometric mean): 488 ng/mL
- CL/F, Mean [1]: 20.5 L/h
- CL/F, geometric mean [1]: 18.9 L/h
- AUC(0-inf) ([2]; human, plasma, population PK method, spine surgery: liposomal bupivacaine 4 mg/kg (6 to <17 y, n = 18) or bupivacaine HCl 2 mg/kg (12 to <17 y, n = 15), read-out: AUC0-∞, geometric mean): 6400 ng·h/mL
- Cmax ([2]; human, plasma, population PK method, spine surgery: liposomal bupivacaine 4 mg/kg (6 to <17 y, n = 18) or bupivacaine HCl 2 mg/kg (12 to <17 y, n = 15), read-out: Early Cmax, geometric mean): 444 ng/mL
- Vd/F ([2]; human, plasma, population PK method, spine surgery: liposomal bupivacaine 4 mg/kg (6 to <17 y, n = 18) or bupivacaine HCl 2 mg/kg (12 to <17 y, n = 15), read-out: Vss/F, geometric mean): 153 L
- half-life ([2]; human, plasma, population PK method, spine surgery: liposomal bupivacaine 4 mg/kg (6 to <17 y, n = 18) or bupivacaine HCl 2 mg/kg (12 to <17 y, n = 15), read-out: t1/2, geometric mean (converted)): 6.5 h
- CL/F, geometric mean ([2]; population PK method, spine surgery: liposomal bupivacaine 4 mg/kg (6 to <17 y, n = 18) or bupivacaine HCl 2 mg/kg (12 to <17 y, n = 15)): 16.8 L/h
- Median predicted early Tmax ([2]; population PK model, spine surgery): 0.667 h
- discontinuations due to TEAEs or on-study deaths [3]: no discontinuations due to TEAEs or on-study deaths
